Source: ChEMBL document CHEMBL3727366, “Heterocyclic compounds for the treatment of stress-related conditions” (2013)
pIC50, pKi: −log10 of the molar value. Calls of active or inactive are those of the source. No rule for the calls is given here.

Columns and labels:
Rattus norvegicus [1] = assay: Inhibition of tail-pinch stress-induced feeding behavior in Wistar rat at 5 mL/kg, po dosed 1 or 2 hrs before tail-pinch stimulus; assay type: functional, organism-based
[2] = target: T1, Prolactin-releasing peptide receptor (Homo sapiens, UniProt P49683); assay: Antagonist activity against human GPR10 receptor expressed in HEK293 cells assessed as inhibition of PrRP-induced intracellular calcium mobilization pre-incubated for 15 mins before PrRP addition by Fluo-8 dye based fluorescence imaging plate reader method; assay type: functional, cell-based
T1 sequence (P49683 whole entry): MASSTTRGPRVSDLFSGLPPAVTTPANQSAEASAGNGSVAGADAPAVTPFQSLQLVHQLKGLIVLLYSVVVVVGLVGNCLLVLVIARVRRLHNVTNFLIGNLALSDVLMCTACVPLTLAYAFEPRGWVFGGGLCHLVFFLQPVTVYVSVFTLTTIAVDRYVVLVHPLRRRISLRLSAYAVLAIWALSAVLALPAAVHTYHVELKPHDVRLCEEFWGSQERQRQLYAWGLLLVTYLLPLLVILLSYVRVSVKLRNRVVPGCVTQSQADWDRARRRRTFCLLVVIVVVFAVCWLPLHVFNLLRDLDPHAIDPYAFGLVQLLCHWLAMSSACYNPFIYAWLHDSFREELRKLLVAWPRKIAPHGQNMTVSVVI

Rattus norvegicus [3] = assay: Inhibition of restraint stress-induced defecation in Wistar rat at 5 mL/kg, po dosed 1 or 2 hrs before restraint stress; assay type: functional, organism-based
[4] = target: T1, Prolactin-releasing peptide receptor; assay: Displacement of [3H]-PrRP from human GPR10 receptor expressed in HEK293 cell membranes incubated for 90 mins by liquid scintillation counting method

| pKi [4] | Compound | inhibition (Rattus norvegicus [1]) | pIC50 [2] | inhibition (Rattus norvegicus [3]) |
| --- | --- | --- | --- | --- |
| 8.22 | COn1c(N[C@@H](C)c2ccc(C(F)(F)F)cc2)nc2c(c1=O)CN(C(=O)COc1ccc(C#N)cc1)CC2 | Active | – | Active |
| 7.70 | COn1c(N[C@@H](C)c2ccc(C(F)(F)F)cc2)nc2c(c1=O)CN(C(=O)c1cc(-c3cccs3)n(C)n1)CC2 | Active | – | Active |
| 7.62 | COn1c(N[C@H](c2ccc(Cl)cc2)C(C)C)nc2c(c1=O)CN(C(=O)c1ccc3c(c1)CCC(=O)N3C)CC2 | Active | – | Active |
| 8.00 | COn1c(N[C@@H](C)c2ccc(C(F)(F)F)cc2)nc2c(c1=O)CN(C(=O)c1cc3occc3n1C)CC2 | Active | – | Active |
| 7.51 | COn1c(N[C@H](c2ccc(Cl)cc2)C(C)C)nc2c(c1=O)CN(C(=O)c1ccc(-n3ccnc3)cc1)CC2 | Active | – | Active |
| 7.38 | COn1c(N[C@H](c2ccc(Cl)cc2)C(C)C)nc2c(c1=O)CN(C(=O)c1ccc3c(c1)OCCO3)CC2 | Active | – | Active |
| 7.59 | COn1c(N[C@H](c2ccc(Cl)cc2)C(C)C)nc2c(c1=O)CN(C(=O)c1cc3ccccc3cn1)CC2 | Active | – | Active |
| 7.92 | COn1c(N[C@@H](C)c2ccc(C(F)(F)F)cc2)nc2c(c1=O)CN(C(=O)/C=C/c1ccc(Cl)cc1)CC2 | Active | 5.24 | Active |
| 8.05 | COn1c(N[C@@H](C)c2ccc(C(F)(F)F)cc2)nc2c(c1=O)CN(C(=O)c1cc3cccnc3s1)CC2 | Active | – | Active |
| 7.48 | CC(C)COn1c(N[C@@H](C)c2ccc(C(F)(F)F)cc2)nc2c(c1=O)CN(C(=O)c1ccc(C#N)cc1F)CC2 | Active | – | Active |
| 8.00 | COn1c(N[C@@H](C)c2ccc(C(F)(F)F)cc2)nc2c(c1=O)CN(C(=O)c1ccc3c(c1)OCCO3)CC2 | Active | – | Active |
| 8.10 | COn1c(N[C@@H](C)c2ccc(C(F)(F)F)cc2)nc2c(c1=O)CN(C(=O)c1ccc(C)c(F)c1)CC2 | Active | – | Active |
| 7.85 | COc1ccc2oc(C(=O)N3CCc4nc(N[C@@H](C)c5ccc(C(F)(F)F)cc5)n(OC)c(=O)c4C3)cc2c1 | Active | – | Active |
| 7.32 | COn1c(N[C@@H](C)c2ccc(C(F)(F)F)cc2)nc2c(c1=O)CN(C(=O)c1ccc(Cl)o1)CC2 | Active | – | Active |

The next lines start with the molecule.

| Compound | pKi [4] | inhibition (Rattus norvegicus [1]) | pIC50 [2] | inhibition (Rattus norvegicus [3]) |
| --- | --- | --- | --- | --- |
| COn1c(N[C@@H](C)c2ccc(C(F)(F)F)cc2)nc2c(c1=O)CN(C(=O)CCc1ccc(Cl)cc1)CC2 | 6.87 | Active | 5.41 | Active |
| CCOn1c(N[C@@H](C)c2ccc(C(F)(F)F)cc2)nc2c(c1=O)CN(C(=O)c1ccc(Cl)cc1)CC2 | 7.60 | Active | 5.43 | Active |
| COc1ccc(C(=O)N2CCc3nc(N[C@@H](C)c4ccc(C(F)(F)F)cc4)n(OC)c(=O)c3C2)c(OC)n1 | 8.15 | Active | 6.64 | Active |
| C[C@H](Nc1nc2c(c(=O)n1N1CCOCC1)CN(C(=O)c1ccc(C#N)cc1F)CC2)c1ccc(C(F)(F)F)cc1 | 8.52 | Active | 6.73 | Active |
| COn1c(N[C@@H](C)C2CCCCC2)nc2c(c1=O)CN(C(=O)c1ccc(C#N)cc1F)CC2 | 7.25 | Active | – | Active |
| CCOn1c(N[C@@H](C)c2ccc(C(F)(F)F)cc2)nc2c(c1=O)CN(C(=O)c1ccc(C#N)cc1F)CC2 | 8.30 | Active | 6.64 | Active |
| COn1c(NC(C)c2ccc(Cl)cc2)nc2c(c1=O)CN(C(=O)COc1ccc(Cl)cc1)CC2 (single isomer, unassigned) | 7.82 | Active | 5.93 | Active |
| C[C@H](Nc1nc2c(c(=O)n1N1CCCC1)CN(C(=O)c1ccc(C#N)cc1F)CC2)c1ccc(C(F)(F)F)cc1 | 8.22 | Active | 6.53 | Active |
| COn1c(N[C@@H](C)c2ccc(C(F)(F)F)cc2)nc2c(c1=O)CN(C(=O)COc1ccc(Cl)cc1)CC2 | 8.10 | Active | 6.17 | Active |
| CCOn1c(N[C@@H](C)c2ccc(C(F)(F)F)cc2)nc2c(c1=O)CN(C(=O)c1cc3cccnc3s1)CC2 | 7.77 | Active | 5.77 | Active |
| COn1c(N[C@@H](C)c2ccc(C(F)(F)F)cc2)nc2c(c1=O)CN(C(=O)CSc1ccc(Cl)cc1)CC2 | 8.10 | Active | 5.94 | Active |
| COn1c(N[C@H](c2ccc(Cl)cc2)C(C)C)nc2c(c1=O)CN(C(=O)c1cc3ccccn3n1)CC2 | 7.89 | Active | – | Active |
| CCOn1c(N[C@@H](C)c2ccc(C(F)(F)F)cc2)nc2c(c1=O)CN(C(=O)c1ccc(-c3cnco3)cc1)CC2 | 7.70 | Active | 6.80 | Active |
| COn1c(N[C@@H](C)c2ccc(C(F)(F)F)cc2)nc2c(c1=O)CN(C(=O)c1ccc(C)s1)CC2 | 8.00 | Active | 5.95 | Active |
| COn1c(N[C@@H](C)c2ccc(C(F)(F)F)cc2)nc2c(c1=O)CN(C(=O)c1ccc(C)c(C)c1)CC2 | 8.40 | Active | 5.99 | Active |
| CCOn1c(N[C@@H](C)c2ccc(C(F)(F)F)cc2)nc2c(c1=O)CN(C(=O)c1ccc(C#N)cc1)CC2 | 7.96 | Active | 6.81 | Active |
| COn1c(N[C@H](C)C2CCCCC2)nc2c(c1=O)CN(C(=O)c1ccc(C#N)cc1F)CC2 | 7.21 | Active | – | Active |
| COn1c(N[C@@H](C)c2ccc(C(F)(F)F)cc2)nc2c(c1=O)CN(C(=O)c1ccc(Cl)s1)CC2 | 7.82 | Active | 5.06 | Active |
| C[C@H](Nc1nc2c(c(=O)n1N1CCCC1)CN(C(=O)c1ccc(C#N)cc1)CC2)c1ccc(C(F)(F)F)cc1 | 8.00 | Active | 6.19 | Active |
